One assay has as its system Candida albicans. Kind of assay: Minimum inhibitory concentration, pure culture. Format: cell-based. The text has this: (§1) Antimicrobial activity was also investigated with pure cultures for three different cooling compounds. The results of Triclosan, a well-known antimicrobial, are shown for comparison.
In the next assay the test system is Corynebacterium xerosis. Kind of assay: Minimum inhibitory concentration, pure culture. The class given is cell-based.
Text: as §1

In another assay the test system is Staphylococcus aureus. In words: Minimum inhibitory concentration, pure culture. Format: cell-based.
Text: as §1

In assay [1] the test system is Staphylococcus epidermidis. Kind of assay: Minimum inhibitory concentration, pure culture. Format: cell-based.
Text: as §1

The subject of another assay is Staphylococcus hominis. Kind of assay: Minimum inhibitory concentration, pure culture. Format: cell-based.
Text: as §1

The next assay relates to Escherichia coli. Kind of assay: Minimum inhibitory concentration, pure culture. The class given is cell-based. The conditions noted are these: for MIC: Escherichia coli, read-out: MIC Escherichia coli; for MIC Escherichia coli: Example 2 table (oral care). The text has this:
(§2) Antimicrobial activity was also investigated with pure cultures for three different cooling compounds. The results of Triclosan, a well-known antimicrobial, are shown for comparison. (Table 7):
(§3) The differential inhibition of microorganisms was also investigated with strains that typically are found in the oral cavity and that are related to oral diseases like gingivitis or caries. The cooling compounds show a better efficacy against Streptococcus mutans, Streptococcus salivarius, Porphyromonas gingivalis and Fusobacterium nucleatum in comparison to Escherichia coli.

A further assay relates to Anaerococcus octavius. Kind of assay: Minimum inhibitory concentration, pure culture. The class given is cell-based.
Text: as §2
It should be emphasized that Anaerococcus octavius represents the category of anaerobic odour causing bacteria. As a matter of fact, it is very hard to find antimicrobial materials which are active against these germs.

Another assay relates to Fusobacterium nucleatum. Kind of assay: Minimum inhibitory concentration, oral cavity strains. Format: cell-based. The note with it: read-out: MIC Fusobacterium nucleatum.
Text: as §3

The next assay relates to Porphyromonas gingivalis. The assay is described as above. The class given is cell-based. The conditions noted are these: read-out: MIC Porphyromonas gingivalis.
Text: as §3

The next assay deals with Streptococcus mutans. The description is as above. The conditions noted are these: read-out: MIC Streptococcus mutans. Format: cell-based.
Text: as §3

The subject of another assay is Streptococcus salivarius. The assay is described as above. The note with it: Example 2 table (oral care). Format: cell-based.
Text: as §3

The test system of assay [2] is axillary microbiome in human axillary sweat. In words: Axillary microbiome ex vivo model: aerobic and anaerobic cell counts. Format: cell-based. The text has this: (§4) The formation of sweat odour was investigated in an axillary microbiome ex vivo model that is based on human axillary sweat. […] This includes accumulation of volatile organic acids related to sweat odour (measured with GC-MS) and conversion of non-odorous precursor molecules to the respective odorous product (measured with HPLC) going along with the development of the typical sweat odour (assessed by a sensory panel).
(§5) The resulting sweat odour is the result of microbial activity. Those microorganisms that can metabolize the nutrients contained in the sweat can also increase their cell number. Untreated sweat starts with a cell number of about 10^7 cells/ml. These numbers increase by a magnitude during incubation, both for aerobic as well as anaerobic cell count. […] Anaerobic genera like Anaerococcus, Peptoniphilus, and Finegoldia are part of the natural axillary flora (Zeeuwen et al (2012), Troccaz et al (2015)). As some of their assigned species are known to be odour causing (Fuji 2014), the limitation of their increase is of high importance for the management of the typical sweat odor. […] Table 2 refers to change in microbiome composition.

Assay [3] has the same test system. Kind of assay: Axillary microbiome ex vivo model: microbiome composition. The class given is cell-based.
Text: as §4, §5

In assay [4] the test system is sweat odour of human axillary sweat. Kind of assay: Axillary microbiome ex vivo model: sweat odour rating by sensory panel.
Text: as §4

Assay [5] has as its system conversion of non-odorous precursor molecules in human axillary sweat. In words: Axillary microbiome ex vivo model: HPLC-MS of non-odourous precursors and odorous products. The class given is cell-based.
Text: as §4

Assay [6] concerns volatile organic acids in human axillary sweat. In words: Axillary microbiome ex vivo model: volatile organic acids (GC-MS). The class given is cell-based.
Text: as §4

Where [7] appears, read: Table 7, read-out: MIC Candida albicans.
Where [8] appears, read: Table 7, read-out: MIC Corynebacterium xerosis.
Where [9] appears, read: Table 7, read-out: MIC Staphylococcus aureus.
The mark [10] stands for this setting: Table 7, read-out: MIC Staphylococcus epidermidis.
Where [11] appears, read: Table 7, read-out: MIC Staphylococcus hominis.
Where [12] appears, read: Table 7, read-out: MIC Anaerococcus octavius.
[13] abbreviates: 5,000 ppm, after 48 h incubation of fresh sweat.

In brackets after ≈: the same amount, converted by molar mass. Read-outs that look alike come from different tables or passages of the source. Where only a bound is given, the exact number is not on record here.

Data on four compounds can be found in patent US20240058243A1, “A METHOD FOR FIGHTING MICROORGANISMS USING MENTHOL DERIVATIVES” (priority 2020, published 2024).

What is called MIC is the least concentration at which growth counts as inhibited.

With `CC(C)[C@@H]1CC[C@@H](C)CC12OCC(CO)O2` (mixture of isomers) [Frescolat ® MGA, Menthon Glyceryl Acetal], the MIC is > 1 µg/mL with Candida albicans (setting [7]); 500 µg/mL with Corynebacterium xerosis (setting [8]); 1 µg/mL in the assay on Staphylococcus aureus (setting [9]); 500 µg/mL in assay [1] (setting [10]); 500 µg/mL with Staphylococcus hominis (setting [11]); > 1 µg/mL in the assay on Escherichia coli (Table 7). Moreover, the MIC in the assay with Anaerococcus octavius (setting [12]) turned out to be 2.5 µg/mL; in the assay with Fusobacterium nucleatum (Example 2 table (oral care)) it was 500 µg/mL; in the assay on Porphyromonas gingivalis (Example 2 table (oral care)), 250 µg/mL; in the assay on Streptococcus mutans (Example 2 table (oral care)) it was 500 µg/mL; in the assay on Streptococcus salivarius it was 500 µg/mL. In addition, in the assay with Escherichia coli, the “MIC Escherichia coli” value is >1.000 ppm.
In the case of `CC(O)C(=O)O[C@@H]1C[C@H](C)CC[C@H]1C(C)C` (stereo in doubt) [Frescolat ® ML, Menthyl Lactate], in [2] (5000 ppm added to fresh sweat), the “Cell number development compared to untreated” value is reported as “slight reduction compared to untreated”. In addition, in assay [2] (setting [13]), the Aerobic cell count came to 6.85E+07 cells/ml and the Anaerobic cell count was found to be 1.08E+07 cells/ml. Further, in [3] (5000 ppm added to fresh sweat), the “Abundance of anaerobic odour causing genera Anaerococcus, Finegoldia and Moraxella” value is “inhibited in their abundance increase”; the “Relative abundance of Raoultella, Corynebacterium and Staphylococcus versus untreated” value is listed as “same relative abundance as in the untreated sample”. In [3] (5,000 ppm, after 48 h), the “Relative abundance Anaerococcus” value was determined as 1.6%, the “Relative abundance Below 0.1%” value worked out at 1.1%, the “Relative abundance Citrobacter” value was 11.7% and the “Relative abundance Corynebacterium” value is reported as 2.8%. In assay [3] (5,000 ppm, after 48 h), the “Relative abundance Enterobacter” value came to 32.6%, the “Relative abundance Finegoldia” value amounted to 0.2%, the “Relative abundance Kluyvera” value turned out to be 0.9% and the “Relative abundance Moraxella” value is 0.0%. For the same compound, in assay [3] (5,000 ppm, after 48 h), the “Relative abundance Propionibacterium” value is 7.6%, the “Relative abundance Raoultella” value was determined as 39.1%, the “Relative abundance Staphylococcus” value amounted to 2.2% and the “Relative abundance Streptococcus” value came out at 0.1%. In assay [3] (5,000 ppm, after 48 h), the “Relative abundance Undefined” value is given as 0.0%. The “Odour development in sensory analysis in comparison to untreated” value in [4] (5000 ppm added to fresh sweat) was “clear reduction of odour development”. The “Odor rating (smell intensity), mean” value in assay [4] (5000 ppm, 48 h, mean of 8 panelists) is 2.4. The “Formation of odorous products” value in assay [5] (5000 ppm added to fresh sweat) is on record as “drastically reduced formation”. In assay [5] (5000 ppm, 48 h), the “Concentration of non-odourous pre-cursour N-α-3-hydroxy-3-methylhexanoyl-L-glutamine (HMHA-Gln)” value worked out at 102.24 ppm; the “Concentration of non-odourous pre-cursour N-α-[(2E)-3-methyl-2-hexenoyl]-L-glutamine (3M2H-Gln)” value came to 10.42 ppm; the “Concentration of odorous products, line N-α-3-hydroxy-3-methylhexanoyl-L-glutamine (HMHA-Gln)” value came out at 0.43 ppm; the “Concentration of odorous products, line N-α-[(2E)-3-methyl-2-hexenoyl]-L-glutamine (3M2H-Gln)” value is 1.69 ppm. For the same compound, in assay [6] (5000 ppm added to fresh sweat), the “Formation of volatile organic acids” value is reported as “drastically reduced formation”. In addition, in assay [6] (5000 ppm, 48 h), the “Concentration of 2-Methylbutyric Acid” value is listed as 0 ppm, the “Concentration of Acetic Acid” value was 11.1 ppm, the “Concentration of Butyric Acid” value turned out to be 0.3 ppm and the “Concentration of Capric Acid” value came to 1.3 ppm. Besides, in assay [6] (5000 ppm, 48 h), the “Concentration of Capronic Acid” value stood at 0.6 ppm, the “Concentration of Caprylic Acid” value is on record as 1.5 ppm, the “Concentration of Lauric Acid” value is 1.7 ppm and the “Concentration of Propanoic Acid” value was 2.2 ppm. Also, the “Concentration of Valeric Acid” value in [6] (5000 ppm, 48 h) stood at 0 ppm. Also, the minimum inhibitory concentration (MIC) in the assay with Candida albicans (setting [7]) was 1 µg/mL. Further, the MIC in the assay on Corynebacterium xerosis (setting [8]) was found to be 250 µg/mL. Also, the MIC in the assay on Staphylococcus aureus (setting [9]) is 250 µg/mL. Further, the minimal inhibitory concentration (MIC) in assay [1] (setting [10]) came out at 500 µg/mL. Besides, the MIC in the assay with Staphylococcus hominis (setting [11]) came out at 250 µg/mL. Further, in the assay with Escherichia coli (Table 7), the minimum inhibitory concentration (MIC) is > 5 µg/mL. The “MIC Escherichia coli” value in the assay on Escherichia coli is >5.000 ppm. In addition, the MIC with Anaerococcus octavius (setting [12]) worked out at 500 µg/mL. The MIC with Fusobacterium nucleatum (Example 2 table (oral care)) is 250 µg/mL. Moreover, in the assay with Porphyromonas gingivalis (Example 2 table (oral care)), the minimal inhibitory concentration (MIC) is 125 µg/mL. Besides, the MIC in the assay on Streptococcus mutans (Example 2 table (oral care)) came to 125 µg/mL. The minimal inhibitory concentration (MIC) in the assay on Streptococcus salivarius was 500 µg/mL.
On to `CC(C)[C@@H]1CC[C@@H](C)C[C@H]1OC(=O)OCCO` [Frescolat ® MGC, Menthol Ethylene Glycol Carbonate], for which the MIC in the assay with Candida albicans (setting [7]) is > 1 µg/mL; in the assay with Corynebacterium xerosis (setting [8]) it was 500 µg/mL (≈ 2050 µM); in the assay on Staphylococcus aureus (setting [9]) it was 500 µg/mL (≈ 2050 µM); with Staphylococcus hominis (setting [11]), 500 µg/mL (≈ 2050 µM); with Escherichia coli (Table 7), > 1 µg/mL; with Anaerococcus octavius (setting [12]), 1 µg/mL (≈ 4.09 µM). Moreover, the minimum inhibitory concentration (MIC) in the assay on Fusobacterium nucleatum (Example 2 table (oral care)) was found to be 16 µg/mL (≈ 65.5 µM); in the assay on Porphyromonas gingivalis (Example 2 table (oral care)) it was 125 µg/mL (≈ 512 µM); in the assay with Streptococcus mutans (Example 2 table (oral care)), 250 µg/mL (≈ 1020 µM); in the assay on Streptococcus salivarius, 500 µg/mL (≈ 2050 µM). Further, the “MIC Escherichia coli” value with Escherichia coli was >1.000 ppm.
`Oc1cc(Cl)ccc1Oc1ccc(Cl)cc1Cl` [Triclosan, reference compound]: the MIC in the assay on Candida albicans (read-out: MIC Candida albicans) is 16 µg/mL (≈ 55.3 µM); in the assay on Corynebacterium xerosis (read-out: MIC Corynebacterium xerosis), 8 µg/mL (≈ 27.6 µM); in the assay with Staphylococcus aureus (read-out: MIC Staphylococcus aureus), 2 µg/mL (≈ 6.91 µM); in [1] (read-out: MIC Staphylococcus epidermidis) it was 4 µg/mL (≈ 13.8 µM); in the assay with Staphylococcus hominis (read-out: MIC Staphylococcus hominis), 4 µg/mL (≈ 13.8 µM); in the assay on Escherichia coli, > 1 µg/mL. Also, the minimal inhibitory concentration (MIC) was > 500 µg/mL in the assay on Anaerococcus octavius (read-out: MIC Anaerococcus octavius), 8 µg/mL (≈ 27.6 µM) in the assay with Fusobacterium nucleatum, 1 µg/mL (≈ 3.45 µM) in the assay with Porphyromonas gingivalis and 8 µg/mL (≈ 27.6 µM) in the assay on Streptococcus mutans. The “MIC Escherichia coli” value against Escherichia coli was >1 ppm.
